Data published in US6593144B2, “Magnetic resonance imaging using hyperpolarized noble gases” (The Trustees of Princeton University, priority 1994, dated 2003).
“And” between values parts separate entries of the source, which are not always exact repeats. Equal values may be shown once. Read-outs that look alike come from different tables or passages of the source.

What was measured:
[1] = cited from earlier work
[2] = cited from earlier work; remark: listed apart in the source
[3] = inhaled, humans; cited from earlier work
[4] = 30° C., 0.5 atm, cited from earlier work
[5] = inhaled, mouse; cited from earlier work
[6] = brain, cited from earlier work
[7] = cited from earlier work; remark: listed apart in the source
[8] = dissolved in rat blood, 293° K, data obtained over 12 hr; cited from earlier work
[9] = Relaxivity of O2 toward 129Xe and T1 estimates derived from it; assay type: physicochemical; details: for T1: absence of other relaxers
From the text: It is known that ^129Xe, which has a long longitudinal relaxation time in the gas phase, can be relaxed by magnetic dipole-dipole interaction and/or Fermi-Contact interaction with the unpaired electron spins of dioxygen. (Reference 18). The solubility of Xenon (and also of dioxygen) in water is low. Due to the low sensitivity of the ^129Xe signal, the time required for determining the relaxivity of O2 toward ^129Xe with a series of T1 determinations over a range of O2 concentrations in water would be prohibitively long.
The relaxivity of O2 toward ^129Xe has been measured in only one liquid, i.e., octanol, which models an amphipathic membrane lipid. (Reference 17). The observed relaxivity, 0.029 s^−1mM^−1, is about three times larger than that estimated from previous reports for gas-phase relaxation, i.e., (Reference 18), 0.0087 s^−1mM^−1, as might be expected for encounters in the condensed phase. The dioxygen relaxivity for ^129Xe is constant over the concentration range studied, and thus 1/T1 will be a linear function of O2 concentration over the entire physiological range (0-0.2 atm, 0-0.2 mM). This translates into a T1 value of 18 s in air-saturated lipid, and 80 s in anaerobic lipid, in the absence of other relaxers. This is the first reported value for the O2 relaxivity toward ^129Xe in a condensed phase. T2values over these O2 concentrations have been determined to range from 0.5 to 5.0 s. […] In fact, given the relative inefficiency of the known non-paramagnetic relaxation mechanisms, it is suspected that T1 in many tissues will not fall below seconds or even tens of seconds.
This estimate of T1≈38 s for ^129Xe dissolved in rat blood at 293° K is very encouraging. […] One can also estimate T1 values for other model systems. The T1 of ^129Xe in water has been measured at 300° K to be 130 s. […] While the actual values of T1 in each tissue must be, and remain to be, determined, it is expected that the minimum value will fall above 15 s, a duration sufficient to enable significant accumulation of polarized ^129Xe in major tissues. […]

[10] = myoglobin (aqueous Fe(III) metmyoglobin)

For O=O [O2, dioxygen], the “relaxivity of O2 toward 129Xe” value ([1]; gas phase, estimated from previous reports) is given as 0.0087 s⁻¹ mM⁻¹ and the “relaxivity of O2 toward 129Xe” value ([1]; octanol, 300° K) is given as 0.029 s⁻¹ mM⁻¹.

In the case of [Xe] [Xenon], the metabolism ([2]; by the body) is given as “not metabolized by the body”, the “period of recovery from the exhaled breath” value ([2]; human subjects) is given as ~20 min and the “time to reach a steady state with the entire blood volume (one blood circuit)” value [3] is given as “about 18 s”. The “solubility of Xenon in octanol” value ([4]; octanol) was 48 mM, the “solubility of Xenon in water” value ([4]; water) was 2.4 mM and the “time to reach a steady state with the entire blood volume (one blood circuit)” value [5] was “about 1 s”. For the same molecule, the “steady-state concentration bound to proteins” value ([6]; 0.5-1.0 atm lung Xenon) was 1 to 5 mM, the “steady-state concentration in the membrane bilayers” value ([6]; 0.5-1.0 atm lung Xenon) was 5 to 10 mM and the “steady-state concentration in water” value ([6]; 0.5-1.0 atm lung Xenon) was 2 to 4 mM. The “solubility in white matter versus gray matter” value [6] was “approximately twice as soluble in white matter as in gray matter”.

In the case of [129Xe] [^129Xe, Xenon-129], the T1 ([7]; 10% Fe(III) metMb) is listed as 0.005 s, the T1 ([7]; benzene, 9.4 T and 300° K, Diehl and Jokisaari) is listed as 155.0 ± 6.2 s and the T1 ([7]; benzene, 300° K) is listed as 160 s and 160.5 s. The T1 ([7]; benzene, Moschos and Reisse) was 240 s, the T2 ([7]; benzene) was 0.88 s and the T1 [7, 10] was 0.0052 s. The T2 [7, 10] was 0.00057 s, the T1 ([7]; octanol) was 80 s and 78.5 s and the T2 ([7]; octanol) was 5.3 s. For the same molecule, the T2 ([7]; pure gas phase, 1 atm) was “≦56 hrs”, the T1 ([7]; pure gas phase, practically) was “at least 3000 s” and the T1 ([7]; water) was 130 s and 131.3 s. The T2 ([7]; water) was 5.3 s, the T2 ([1]; octanol, over O2 concentrations 0-0.2 atm) was 0.5 to 5.0 s and the T1 [8] was 38 s and ≈ 38 s. For the same molecule, the T1 ([9]; air-saturated lipid) was 18 s, the T1 ([9]; anaerobic lipid) was 80 s and the “estimated T1” value ([9]; fully oxygenated membranes) was > 15 s.
